# According to patent US20260001928A1 (CORTERIA PHARMACEUTICALS, priority 2022, published 2026):
# *1 amine or outer side, *2 acyl side, *3 side chain or, on linkers, in order; H or OH if unused. Where a SMILES comes first, the peptide text is derived from it. Side-chain parts run from the residue outwards. [ ]: non-standard residue; d: D form. The star is where a group is joined. C20 diacid = O=C(O)CCCCCCCCCCCCCCCCCCC(=O)*; C18 diacid = O=C(O)CCCCCCCCCCCCCCCCC(=O)*; γGlu = O=C(O)[C@H](CCC(=O)[*:2])N[*:1]; NMeI = CC[C@H](C)[C@H](NC)C(=O)O; Aib = CC(C)(N)C(=O)O
# Key:
# rat CRF2 a = biological target: T1, rat CRF2 a (Rattus norvegicus, UniProt P47866); assay: Activity at rat CRF2 a, cAMP assay in A7R5 rat aortic smooth muscle cells; type: cell-based; settings: 0% HSA, 100% = Sauvagine at 100 nM
# T1 construct: host or cells: A7R5 rat aortic smooth muscle cells
# Protocol: The A7R5 rat aortic smooth muscle cell line used in this study was purchased from ATCC.
# Cells were grown in a 10 cm dish at 37° C./5% CO2 in medium (DMEM/10% FBS) to near confluence. At that stage, cells were harvested, resuspended to 10 million/mL in culture medium and with 5% DMSO. 1 mL vial aliquots were slowly frozen to −80° C. in isopropanol and then transferred in liquid nitrogen for storage.
# These vials were used to run the experiment following the procedure reported in the previous paragraph, except for the compound used in the control well to define the 100% activation (Sauvagine at 100 nM) and the cell density (final cell density: 5000 cells/well).
# [1] = In vitro subcutaneous tissue supernatant (SCts) stability and metabolite identification, rat; type: in vitro ADME; design: remaining at 2 h: dose or concentration left out as unconfirmed; settings: male, Sprague Dawley; rat subcutaneous tissue supernatant (SCts), 37° C, 2 h
# [2] = Chemical stability in buffer (pH 7.4 / pH 4.5), % purity loss; type: physicochemical; settings: 100 mM phosphate buffer pH 7.4; 40° C. vs 5° C.; 14 or 28 days
# Outline: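 Compounds dissolved at 10 mg/mL target in 100 mM phosphate (pH 7.4) or 100 mM acetate (pH 4.5) buffer for 1 h at room temperature, then centrifuged. Diluted supernatant stored at 5 °C or 40 °C for 14 or 28 days; % purity loss by LC-UV.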
# [3] = Pharmacokinetics in male Sprague Dawley rats after subcutaneous administration; type: in vivo; settings: plasma, rat, SC, 0.05 mg/kg
# Sprague Dawley rats = assay: Effect on systolic blood pressure, telemetry in Sprague Dawley rats; type: in vivo, rat; settings: 0.1 mg/kg SC
# Outline: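 Sprague Dawley rats with abdominal-aorta telemetry catheters, recovered ≥10 days, received 0.1 mg/kg SC of compound or vehicle. Systolic pressure recorded 1 h pre-dose as baseline, then continuously up to 48 hours, expressed as % change from baseline; duration of action is last time point with a BP effect (n=2).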
# [4] = Pharmacokinetics in male Sprague Dawley rats after subcutaneous administration; type: in vivo; settings: plasma, rat, IV
# CFR1R receptor = biological target: T2, CFR1R receptor (Homo sapiens, UniProt P34998); assay: Activity at anti-target CFR1R receptor, cAMP assay in CRF1R-overexpression CHO-K1 cells; type: cell-based; settings: 100% = Sauvagine at 100 nM; for EC50: cAMP
# T2 construct: host or cells: CHO-K1 (clone 2)
# T2 sequence (P34998 24-415): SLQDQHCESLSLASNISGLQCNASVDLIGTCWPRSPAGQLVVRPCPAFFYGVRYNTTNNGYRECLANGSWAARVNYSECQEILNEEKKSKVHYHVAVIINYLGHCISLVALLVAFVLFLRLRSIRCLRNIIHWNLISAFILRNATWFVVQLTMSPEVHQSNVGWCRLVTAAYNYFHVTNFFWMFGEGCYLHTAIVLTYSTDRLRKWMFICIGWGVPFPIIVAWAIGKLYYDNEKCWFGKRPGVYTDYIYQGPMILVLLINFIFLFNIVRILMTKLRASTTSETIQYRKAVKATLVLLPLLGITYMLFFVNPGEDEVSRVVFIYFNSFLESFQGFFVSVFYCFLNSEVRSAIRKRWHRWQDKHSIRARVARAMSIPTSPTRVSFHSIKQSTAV
# Outline: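 Clone 2 cells were cultured in F12 (Hams)/10% FBS/400 μg/ml G418 at 37° C./5% CO2, frozen in medium with 10% DMSO, and thawed vials used. The protocol followed the TeloHAEC procedure, with 4000 cells/well final and Sauvagine at 100 nM defining 100% activation.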
# human CRF2a receptor = biological target: T3, human CRF2a receptor (Homo sapiens, UniProt Q13324); assay: Activity at human CRF2a receptor, cAMP functional assay in TeloHEAC cells; type: cell-based; settings: TeloHEAC cells stably expressing human CRF2a receptor, relative to urocortin 2 (100 nM = 100%)
# T3 construct: expressed in transfected cells; host or cells: TeloHEAC cells
# T3 sequence (Q13324 1-411): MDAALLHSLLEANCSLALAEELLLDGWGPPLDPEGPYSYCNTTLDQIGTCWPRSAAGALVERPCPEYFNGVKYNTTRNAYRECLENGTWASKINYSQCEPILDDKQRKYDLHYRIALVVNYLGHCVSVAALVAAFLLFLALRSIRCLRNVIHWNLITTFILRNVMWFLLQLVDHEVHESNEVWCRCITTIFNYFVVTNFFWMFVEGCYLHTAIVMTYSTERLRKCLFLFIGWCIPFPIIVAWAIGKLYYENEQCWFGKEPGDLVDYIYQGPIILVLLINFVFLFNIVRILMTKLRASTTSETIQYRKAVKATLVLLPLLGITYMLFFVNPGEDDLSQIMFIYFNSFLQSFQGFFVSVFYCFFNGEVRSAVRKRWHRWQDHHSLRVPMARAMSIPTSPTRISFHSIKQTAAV
# Outline: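 TeloHEAC cells stably expressing human CRF2a (10000 cells/well, suspended in HBSS/20 mM HEPES with 2 mM IBMX) were exposed to compounds for 30 min at 37 °C. cAMP was read as the 665/620 nm fluorescence ratio after 1 h at room temperature. EC50 was derived relative to 100 nM urocortin 2, set as 100%.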
# T1 sequence (P47866 27-431 isoform P47866-2 limits assumed): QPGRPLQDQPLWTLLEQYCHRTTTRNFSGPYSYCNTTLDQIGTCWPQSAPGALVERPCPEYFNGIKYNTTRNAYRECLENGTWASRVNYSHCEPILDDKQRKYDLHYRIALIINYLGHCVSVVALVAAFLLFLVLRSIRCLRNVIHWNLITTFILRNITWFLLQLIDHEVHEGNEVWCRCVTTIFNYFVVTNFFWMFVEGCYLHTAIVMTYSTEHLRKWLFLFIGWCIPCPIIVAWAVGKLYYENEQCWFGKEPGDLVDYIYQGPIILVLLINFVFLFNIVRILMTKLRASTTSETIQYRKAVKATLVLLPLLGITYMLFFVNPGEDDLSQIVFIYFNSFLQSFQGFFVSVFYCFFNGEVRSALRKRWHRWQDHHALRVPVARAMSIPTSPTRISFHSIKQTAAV
EC50 (rat CRF2 a) [pM],remaining at 2 h [1] [%],Buffer stability pH 7.4 % purity loss [2],AUC(0-t) [3] [ng·h/mL],Cmax [3] [ng/mL],Tmax [3] [h],half-life [3] [h],AUC(0-t) ([4]; 0.025 mg/kg) [ng·h/mL],half-life ([4]; 0.025 mg/kg) [h],Emax (% I) (CFR1R receptor),EC50 (CFR1R receptor) [pM],EC50 (human CRF2a receptor) [pM],AUC(0-t) ([4]; 0.05 mg/kg) [ng·h/mL],half-life ([4]; 0.05 mg/kg) [h],Compound,"Systolic blood pressure (Mean) % change from baseline, 8 h (Sprague Dawley rats; 8 h, n=2) [%]","Systolic blood pressure (Mean) % change from baseline, 12 h (Sprague Dawley rats; 12 h, n=2) [%]","Systolic blood pressure (Mean) % change from baseline, 24 h (Sprague Dawley rats; 24 h, n=2) [%]",Duration of action (Sprague Dawley rats; last time point with an effect on BP still observed) [h]
60,74,0.0/Not Tested %,1710,105,6,12.6,–,–,–,–,–,–,–,CC[C@H](C)[C@H](NC)C(=O)N[C@H](C(=O)N[C@@H](CC(C)C)C(=O)N[C@@H](CO)C(=O)N[C@@H](CC(C)C)C(=O)N[C@@H](CC(=O)O)C(=O)N[C@@H](C(=O)N1CCC[C@H]1C(=O)N[C@H](C(=O)N[C@@H](CCCCN)C(=O)N[C@@H](CC(C)C)C(=O)N[C@@H](CCCCNC(=O)CC[C@H](NC(=O)CCCCCCCCCCCCCCCCC(=O)O)C(=O)O)C(=O)N[C@@H](CCCCN)C(=O)N[C@H](C(=O)N[C@@H](CC(C)C)C(=O)N[C@@H](CC(C)C)C(=O)N[C@@H](CCC(=O)O)C(=O)N[C@@H](CCC(N)=O)C(=O)N[C@@H](CCC(=O)O)C(=O)N[C@@H](CCCCN)C(=O)N[C@@H](CCC(N)=O)C(=O)N[C@@H](CCCCN)C(=O)N[C@@H](C)C(=O)N[C@@H](CCC(N)=O)C(=O)N[C@@H](CCCNC(=N)N)C(=O)N[C@@H](CCC(=O)O)C(=O)N[C@@H](CCC(N)=O)C(=O)N[C@@H](C)C(=O)N[C@@H](CCC(=O)O)C(=O)N[C@H](C(=O)N[C@@H](CC(N)=O)C(=O)NC(C)(C)C(=O)N[C@@H](CCC(N)=O)C(=O)N[C@H](C(=O)N[C@@H](CC(C)C)C(=O)N[C@@H](C)C(=O)N[C@@H](CCC(N)=O)C(=O)N[C@H](C(N)=O)C(C)C)[C@@H](C)CC)[C@@H](C)O)[C@@H](C)CC)[C@@H](C)CC)C(C)C)C(C)C [compound 144] (H-[NMeI]VLSLD[dV]PIKLK([γGlu-C18 diacid])KILLEQEKQKAQREQAETN[Aib]QILAQV-NH2),−22,−17,1,23
60,76,1.8/Not Tested %,4040,138,8,12,4120,8,33,> 250000,90,–,–,CC[C@H](C)[C@H](NC)C(=O)N[C@H](C(=O)N[C@@H](CC(C)C)C(=O)N[C@@H](CO)C(=O)N[C@@H](CC(C)C)C(=O)N[C@@H](CC(=O)O)C(=O)N[C@@H](C(=O)N1CCC[C@H]1C(=O)N[C@H](C(=O)N[C@@H](CCCCN)C(=O)N[C@@H](CC(C)C)C(=O)N[C@@H](CCCCNC(=O)CC[C@H](NC(=O)CCCCCCCCCCCCCCCCCCC(=O)O)C(=O)O)C(=O)N[C@@H](CCCCN)C(=O)N[C@H](C(=O)N[C@@H](CC(C)C)C(=O)N[C@@H](CC(C)C)C(=O)N[C@@H](CCC(=O)O)C(=O)N[C@@H](CCC(N)=O)C(=O)N[C@@H](CCC(=O)O)C(=O)N[C@@H](CCCCN)C(=O)N[C@@H](CCC(N)=O)C(=O)N[C@@H](CCCCN)C(=O)N[C@@H](C)C(=O)N[C@@H](CCC(N)=O)C(=O)N[C@@H](CCCNC(=N)N)C(=O)N[C@@H](CCC(=O)O)C(=O)N[C@@H](CCC(N)=O)C(=O)N[C@@H](C)C(=O)N[C@@H](CCC(=O)O)C(=O)N[C@H](C(=O)N[C@@H](CC(N)=O)C(=O)NC(C)(C)C(=O)N[C@@H](CCC(N)=O)C(=O)N[C@H](C(=O)N[C@@H](CC(C)C)C(=O)N[C@@H](C)C(=O)N[C@@H](CCC(N)=O)C(=O)N[C@H](C(N)=O)C(C)C)[C@@H](C)CC)[C@@H](C)O)[C@@H](C)CC)[C@@H](C)CC)C(C)C)C(C)C [compound 217] (H-[NMeI]VLSLD[dV]PIKLK([γGlu-C20 diacid])KILLEQEKQKAQREQAETN[Aib]QILAQV-NH2),–,–,–,–
400,68,0.0/Not Tested %,–,–,–,–,–,–,6,> 250000,220,7970,14,CC[C@H](C)[C@H](NC)C(=O)N[C@H](C(=O)N[C@@H](CC(C)C)C(=O)N[C@@H](CO)C(=O)N[C@@H](CC(C)C)C(=O)N[C@@H](CC(=O)O)C(=O)N[C@@H](C(=O)N1CCC[C@H]1C(=O)N[C@H](C(=O)N[C@@H](CCCCN)C(=O)N[C@@H](CC(C)C)C(=O)N[C@@H](CCCCNC(=O)CC[C@H](NC(=O)CC[C@H](NC(=O)CCCCCCCCCCCCCCCCCCC(=O)O)C(=O)O)C(=O)O)C(=O)N[C@@H](CCCCN)C(=O)N[C@H](C(=O)N[C@@H](CC(C)C)C(=O)N[C@@H](CC(C)C)C(=O)N[C@@H](CCC(=O)O)C(=O)N[C@@H](CCC(N)=O)C(=O)N[C@@H](CCC(=O)O)C(=O)N[C@@H](CCCCN)C(=O)N[C@@H](CCC(N)=O)C(=O)N[C@@H](CCCCN)C(=O)N[C@@H](CCC(=O)O)C(=O)N[C@@H](CCC(N)=O)C(=O)N[C@@H](CCCNC(=N)N)C(=O)N[C@@H](CCC(=O)O)C(=O)N[C@@H](CCC(N)=O)C(=O)N[C@@H](C)C(=O)N[C@@H](CCC(=O)O)C(=O)N[C@H](C(=O)N[C@@H](CC(N)=O)C(=O)NC(C)(C)C(=O)N[C@@H](CCC(N)=O)C(=O)N[C@H](C(=O)N[C@@H](CC(C)C)C(=O)N[C@@H](C)C(=O)N[C@@H](CCC(N)=O)C(=O)N[C@H](C(N)=O)C(C)C)[C@@H](C)CC)[C@@H](C)O)[C@@H](C)CC)[C@@H](C)CC)C(C)C)C(C)C [compound 242] (H-[NMeI]VLSLD[dV]PIKLK([γGlu-γGlu-C20 diacid])KILLEQEKQKEQREQAETN[Aib]QILAQV-NH2),–,–,–,–
